In article PMC5715905, “Mechanistic insight into the assembly of the HerA–NurA helicase–nuclease DNA end resection complex” (Nucleic Acids Research, 2017):
Where “and” joins values, the source holds several entries; their conditions need not be identical. Equal entries are not always repeated.

What was measured:
HerA–NurA = target: T1, HerA–NurA (Saccharolobus solfataricus, UniProt Q97WG8); assay: native mass spectrometry; format: binding; details: nuclease-active complex with 25 bp dsDNA
T1 construct: purified recombinant HerA hexamer with NurA dimer; with DNA double-strand break repair nuclease NurA
T1 sequence (Q97WH1 whole entry, one chain of several, further chain): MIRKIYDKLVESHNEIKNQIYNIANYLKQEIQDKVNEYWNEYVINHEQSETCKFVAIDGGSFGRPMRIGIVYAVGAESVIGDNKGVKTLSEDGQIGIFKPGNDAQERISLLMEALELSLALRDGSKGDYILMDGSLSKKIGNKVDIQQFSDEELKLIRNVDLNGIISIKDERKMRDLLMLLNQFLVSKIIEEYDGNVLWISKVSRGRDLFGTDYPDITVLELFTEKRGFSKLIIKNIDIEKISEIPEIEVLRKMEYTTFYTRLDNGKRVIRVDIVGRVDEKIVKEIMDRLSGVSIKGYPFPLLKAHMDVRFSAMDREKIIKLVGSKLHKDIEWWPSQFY

HerA = target: T2, HerA (Saccharolobus solfataricus, UniProt Q97WG8); assay: native mass spectrometry titration; format: binding; details: 2 mM MgCl2, room temperature 1 h, 30 μM monomer, then 200 mM ammonium acetate, no dsDNA
T2 construct: recombinant, heat-treated, heparin and Q columns; homo-hexamer and homo-heptamer (heptamer dominant when apo)
T2 sequence (Q97WG8 1-500): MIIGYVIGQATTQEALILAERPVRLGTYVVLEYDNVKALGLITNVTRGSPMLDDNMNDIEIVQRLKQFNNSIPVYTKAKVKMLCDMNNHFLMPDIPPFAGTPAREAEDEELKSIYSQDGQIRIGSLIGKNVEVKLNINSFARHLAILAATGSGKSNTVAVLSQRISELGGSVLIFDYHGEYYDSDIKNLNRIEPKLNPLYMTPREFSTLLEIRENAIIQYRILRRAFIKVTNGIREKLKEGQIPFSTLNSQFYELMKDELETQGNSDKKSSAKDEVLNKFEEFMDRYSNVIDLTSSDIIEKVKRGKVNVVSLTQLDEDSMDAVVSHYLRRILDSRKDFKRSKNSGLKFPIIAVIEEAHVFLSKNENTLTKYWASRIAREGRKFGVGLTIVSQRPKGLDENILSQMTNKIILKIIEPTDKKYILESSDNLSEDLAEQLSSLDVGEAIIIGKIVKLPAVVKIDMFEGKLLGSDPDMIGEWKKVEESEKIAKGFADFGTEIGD

[1] = target: the molecule itself; assay: native MS; HerA alone, nucleotide-free (apo), 200 mM ammonium acetate pH 7.0-7.5, nano electrospray; relative intensities by UniDec

**Q.** For Nc1ncnc2c1ncn2[C@@H]1O[C@H](COP(=O)(O)OP(=O)(O)O)[C@@H](O)[C@H]1O [ADP], which native mass spectrometry (HerA–NurA; ATP-γ-S pre-bound) is on record?
**A.** determined the number of ADP simultaneously bound to HerA–NurA–dsDNA

**Q.** What about the “native mass spectrometry titration” value (HerA; 1 mM ADP spectrum) of the same molecule?
**A.** increase in hexameric HerA population was found when titrating HerA with increasing concentrations of ADP

**Q.** Nc1ncnc2c1ncn2[C@@H]1O[C@H](COP(=O)(O)OP(=O)(O)OP(O)(O)=S)[C@@H](O)[C@H]1O [ATP-γ-S] was tested. Which native mass spectrometry (HerA–NurA; mixed with ADP) did it give?
**A.** nuclease-active HerA–NurA–dsDNA complex was incubated with ATP-γ-S

**Q.** What about the “native mass spectrometry titration” value (HerA) of the same molecule?
**A.** the HerA hexamer binds all six ATP-γ-S simultaneously

B1: HerA helicase, wild type (Sulfolobus solfataricus) (enzyme, S. solfataricus)
chain: MIIGYVIGQATTQEALILAERPVRLGTYVVLEYDNVKALGLITNVTRGSPMLDDNMNDIEIVQRLKQFNNSIPVYTKAKVKMLCDMNNHFLMPDIPPFAGTPAREAEDEELKSIYSQDGQIRIGSLIGKNVEVKLNINSFARHLAILAATGSGKSNTVAVLSQRISELGGSVLIFDYHGEYYDSDIKNLNRIEPKLNPLYMTPREFSTLLEIRENAIIQYRILRRAFIKVTNGIREKLKEGQIPFSTLNSQFYELMKDELETQGNSDKKSSAKDEVLNKFEEFMDRYSNVIDLTSSDIIEKVKRGKVNVVSLTQLDEDSMDAVVSHYLRRILDSRKDFKRSKNSGLKFPIIAVIEEAHVFLSKNENTLTKYWASRIAREGRKFGVGLTIVSQRPKGLDENILSQMTNKIILKIIEPTDKKYILESSDNLSEDLAEQLSSLDVGEAIIIGKIVKLPAVVKIDMFEGKLLGSDPDMIGEWKKVEESEKIAKGFADFGTEIGD
notes: HerA helicase of the thermophilic archaeon Sulfolobus solfataricus; In solution a mix of hexamer and heptamer; the hexamer is the form found with NurA; No tag is named in the purification; Expression and constructs may be described in the supplementary materials and methods; also called apo-HerA; wild-type HerA; source: cells lysed by sonication, lysate heated at 70°C, purified (Heparin HP, …)
**Q.** With B1 as the molecule, how does the “abundance of the heptamer over the hexamer” value [1] read?
**A.** ~10 fold

**Q.** And the “stoichiometry N” value [1]?
**A.** 6 and 7
